According to the supplement of paper PMC10307832:

Compound: CO[C@H]1C[C@@H]2CC[C@@H](C)[C@@](O)(O2)C(=O)C(=O)N2CCCC[C@H]2C(=O)O[C@H]([C@H](C)C[C@@H]2CC[C@@H](OCCO)[C@H](OC)C2)CC(=O)[C@H](C)/C=C(\C)[C@@H](O)[C@@H](OC)C(=O)[C@H](C)C[C@H](C)/C=C/C=C/C=C/1C [Everolimus]
Assay: relative viability (nuclei count vs DMSO), 5 days (fraction); higher = more cells survive
Outline: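 Viability here means nuclei in treated wells divided by nuclei in vehicle wells, reported as the median across plates. Only plates with control CV below 25% and at least one doubling passed. Lung cancer cell lines in 1536-well plates were exposed to five √10-spaced library-drug doses for 5 days and counted from 4× Hoechst images in MetaXpress.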

Row | Cell Line | relative viability (0.01 µM) | relative viability (0.03162 µM) | relative viability (0.1 µM) | relative viability (0.3162 µM) | relative viability (1 µM)
1 | NCI-H441 | 0.898 | 0.961 | 0.907 | 0.984 | 0.952
2 | NCI-H1793 | 0.435 | 0.305 | 0.351 | 0.376 | 0.299
3 | NCI-H23 | 0.639 | 0.516 | 0.468 | 0.583 | 0.55
4 | HARA | 0.858 | 0.999 | 0.784 | 0.87 | 0.78
5 | NCI-H1792 | 0.478 | 0.336 | 0.363 | 0.349 | 0.379
6 | NCI-H1703 | 0.455 | 0.373 | 0.456 | 0.529 | 0.63
7 | NCI-H1648 | 0.646 | 0.778 | 0.718 | 0.596 | 0.654
8 | CAL-12T | 0.643 | 0.7 | 0.476 | 0.542 | 0.604
9 | NCI-H727 | 0.67 | 0.537 | 0.518 | 0.608 | 0.552
10 | NCI-H2085 | 0.848 | 0.865 | 0.692 | 0.735 | 0.689
11 | NCI-H1395 | 0.765 | 0.627 | 0.683 | 0.647 | 0.727
12 | SW 900 | 0.578 | 0.498 | 0.545 | 0.57 | 0.512
13 | NCI-H460 | 0.951 | 1.03 | 0.957 | 0.921 | 0.939
14 | A549 | 0.602 | 0.412 | 0.371 | 0.423 | 0.399
15 | IA-LM | 0.601 | 0.396 | 0.378 | 0.374 | 0.406
16 | EKVX | 0.628 | 0.687 | 0.544 | 0.541 | 0.573
17 | ChaGo-K-1 | 0.976 | 0.95 | 0.865 | 0.899 | 0.974
18 | NCI-H522 | 0.722 | 0.655 | 0.601 | 0.731 | 0.813
19 | NCI-H1755 | 0.919 | 0.865 | 0.749 | 0.819 | 0.816
20 | NCI-H2228 | 0.706 | 0.593 | 0.51 | 0.533 | 0.582
21 | NCI-H2087 | 0.814 | 0.903 | 0.759 | 0.772 | 0.966
22 | LU99A | 0.557 | 0.644 | 0.626 | 0.591 | 0.679
23 | NCI-H1355 | 0.666 | 0.537 | 0.552 | 0.628 | 0.48
24 | NCI-H520 | 0.436 | 0.413 | 0.401 | 0.326 | 0.371
25 | NCI-H661 | 0.812 | 0.814 | 0.786 | 0.746 | 0.667
26 | NCI-H650 | 0.7 |  | 0.783 | 0.566 | 0.583
27 | NCI-H647 | 0.644 | 0.521 | 0.539 | 0.535 | 0.65

Row | Cell Line | relative viability (0.01 µM) | relative viability (0.03162 µM) | relative viability (0.1 µM) | relative viability (0.3162 µM) | relative viability (1 µM)
28 | 201T | 0.9 | 0.893 | 0.842 | 0.855 | 0.878
29 | NCI-H838 | 0.603 | 0.561 | 0.468 | 0.516 | 0.51
30 | SW 1573 | 0.585 | 0.555 | 0.546 | 0.544 | 0.519
31 | NCI-H1299 | 0.969 | 0.98 | 1.01 | 0.974 | 1.04
32 | PC-14 | 0.808 | 0.759 | 0.679 | 0.657 | 0.734
33 | LK-2 | 0.844 | 0.554 | 0.546 | 0.491 | 0.487
34 | COR-L23 | 0.858 | 0.942 | 0.869 | 0.88 | 0.684
35 | NCI-H1944 | 0.636 | 0.687 | 0.575 | 0.789 | 0.626
36 | HCC-78 | 0.905 | 0.919 | 0.659 | 0.858 | 0.644
37 | NCI-H2405 | 0.791 | 0.774 | 0.731 | 0.767 | 0.74
38 | SK-LU-1 | 0.652 | 0.583 | 0.593 | 0.591 | 0.639
39 | EMC-BAC-2 | 0.689 | 0.606 | 0.55 | 0.473 | 0.565
40 | NCI-H1650 | 0.761 | 0.879 | 0.828 | 0.85 | 0.868
41 | NCI-H596 | 0.699 | 0.628 | 0.54 | 0.697 | 0.588
42 | NCI-H2342 | 0.569 | 0.512 | 0.531 | 0.667 | 0.641
43 | LCLC-97TM1 | 0.771 | 0.82 | 0.709 | 0.892 | 0.775
44 | H3255 | 0.735 | 0.664 | 0.543 | 0.528 | 0.495
45 | LXF-289 | 1.09 | 1.07 | 1 | 1.03 | 1.05
46 | UMC-11 | 0.376 | 0.415 | 0.374 | 0.44 | 0.468
47 | LC-2-ad | 0.932 | 1.03 | 0.89 | 0.958 | 0.9
48 | SK-MES-1 | 0.755 | 0.75 | 0.74 | 0.663 | 0.622
49 | A-427 | 0.803 | 0.772 | 0.693 | 0.808 | 0.799
50 | NCI-H322M | 0.688 | 0.728 | 0.733 | 0.694 | 0.722
51 | HCC-366 | 0.955 | 0.961 | 0.935 | 0.929 | 0.972
52 | NCI-H1975 | 0.73 | 0.798 | 0.793 | 0.734 | 0.677
53 | NCI-H1437 | 0.875 | 0.795 | 0.767 | 0.738 | 0.621
54 | NCI-H2009 | 0.769 | 0.867 | 0.705 | 0.791 | 0.841

Row | Cell Line | relative viability (0.01 µM) | relative viability (0.03162 µM) | relative viability (0.1 µM) | relative viability (0.3162 µM) | relative viability (1 µM)
55 | NCI-H1651 | 0.749 | 0.71 | 0.691 | 0.663 | 0.645
56 | LCLC-103H | 0.977 | 0.969 | 0.834 | 0.922 | 0.871
57 | NCI-H1666 | 0.952 | 0.858 | 0.853 | 0.886 | 0.898
58 | NCI-H1734 | 0.648 | 0.692 | 0.602 | 0.615 | 0.742
59 | EPLC-272H | 0.691 | 0.596 | 0.568 | 0.513 | 0.626
60 | NCI-H2023 | 0.545 | 0.501 | 0.458 | 0.457 | 0.378
61 | BEN | 0.567 | 0.358 | 0.334 | 0.46 | 0.387
62 | COR-L 105 | 0.667 | 0.682 | 0.592 | 0.552 | 0.663
63 | ABC-1 | 0.604 | 0.822 | 0.781 | 0.707 | 0.875
64 | HCC-15 | 0.964 | 0.994 | 0.922 | 0.98 | 0.958
65 | NCI-H2170 | 0.459 | 0.45 | 0.428 | 0.459 | 0.464
66 | PC-3 [JPC-3] | 1.01 | 1.04 | 0.991 | 0.891 | 0.936
67 | NCI-H1993 | 0.675 | 0.61 | 0.596 | 0.685 | 0.626
68 | NCI-H358 | 0.483 | 0.487 | 0.514 | 0.479 | 0.525
69 | NCI-H1563 | 0.767 | 0.761 | 0.715 | 0.728 | 0.676
70 | EBC-1 | 0.415 | 0.385 | 0.41 | 0.416 | 0.408
71 | NCI-H1915 | 0.955 | 0.863 | 0.82 | 0.875 | 0.866
72 | RERF-LC-KJ | 0.788 | 0.695 | 0.584 | 0.659 | 0.558
73 | LOU-NH91 | 0.823 | 0.799 | 0.798 | 0.789 | 0.773
74 | NCI-H2347 | 0.928 | 0.95 | 0.795 | 0.887 | 0.75
75 | NCI-H2126 | 0.681 | 0.615 | 0.617 | 0.606 | 0.594
76 | HCC-827 | 1.1 | 1.09 | 1.01 | 1.03 | 1.05
77 | Calu-6 | 0.956 | 0.922 | 0.892 | 0.88 | 0.988
78 | NCI-H3122 | 0.987 | 0.993 | 0.831 | 0.691 | 0.852
79 | HOP-62 | 0.901 | 0.856 | 0.767 | 0.777 | 0.794
80 | HCC-44 | 1 | 0.974 | 0.985 | 0.969 | 0.957
